Test results taken from ChEMBL document CHEMBL1201862, “PubChem BioAssay data set” (2004).
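Briefly, cells in 96-well plates were exposed to five compound concentrations for 48 h, and endpoints were estimated by linear interpolation. GI50 is the concentration that inhibits growth by half.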 Calls of active or inactive are those of the source. Rule as the data show it: active = GI50 up to about 1.1 µM and inactive = higher.

Legend:
Experiment in all cases: inhibition of tumour cell growth, NCI panel, 48 h
BT-549 = test system: BT-549
HL-60 = test system: HL-60
HOP-62 = test system: HOP-62
K562 = test system: K562
MCF7 = test system: MCF7
MDA-MB-435 = test system: MDA-MB-435
Malme-3M = test system: Malme-3M
NCI-H460 = test system: NCI-H460
OVCAR-5 = test system: OVCAR-5
PC-3 = test system: PC-3
SF-295 = test system: SF-295
SK-OV-3 = test system: SK-OV-3
SN12C = test system: SN12C
SW-620 = test system: SW-620
T47D = test system: T47D
UO-31 = test system: UO-31
NCI-H522 = test system: NCI-H522
OVCAR-4 = test system: OVCAR-4
SK-MEL-5 = test system: SK-MEL-5
SNB-75 = test system: SNB-75

Measured: GI50

C#CCOC(=O)C=[N+]=[N-]
inactive: BT-549 > 10 µM | HL-60 > 10 µM | HOP-62 > 10 µM | K562 > 10 µM | MCF7 > 10 µM | MDA-MB-435 > 10 µM | Malme-3M > 10 µM | NCI-H460 > 10 µM | OVCAR-5 > 10 µM | PC-3 > 10 µM | SF-295 > 10 µM | SK-OV-3 > 10 µM | SN12C > 10 µM | SW-620 > 10 µM | T47D > 10 µM | UO-31 > 10 µM

COc1cc2ncnc(NS(=O)(=O)c3cc4ccccc4s3)c2cc1OC
inactive: BT-549 > 100 µM | HOP-62 > 100 µM | K562 56.1 µM | MCF7 > 100 µM | MDA-MB-435 > 100 µM | Malme-3M > 100 µM | NCI-H460 > 100 µM | NCI-H522 28.2 µM | OVCAR-4 92.7 µM | OVCAR-5 > 100 µM | PC-3 > 100 µM | SF-295 > 100 µM | SK-MEL-5 > 100 µM | SK-OV-3 > 100 µM | SN12C 70.5 µM | SNB-75 47.8 µM | SW-620 > 100 µM | T47D 25.2 µM | UO-31 76 µM

CC(C)(C)OC(=O)N(CCCN)CCCCN
inactive: BT-549 > 100 µM | HL-60 > 100 µM | HOP-62 > 100 µM | K562 > 100 µM | MCF7 > 100 µM | MDA-MB-435 > 100 µM | NCI-H460 > 100 µM | NCI-H522 > 100 µM | OVCAR-4 > 100 µM | OVCAR-5 > 100 µM | PC-3 > 100 µM | SF-295 > 100 µM | SK-MEL-5 > 100 µM | SK-OV-3 > 100 µM | SN12C > 100 µM | SW-620 > 100 µM | T47D > 100 µM | UO-31 > 100 µM

CCOC(=O)c1c(N2CCN(C)CC2)[nH]c(=O)c(C(c2c(Cl)cccc2Cl)c2c(O)c(C(=O)OCC)c(N3CCN(C)CC3)[nH]c2=O)c1O
inactive: BT-549 20.6 µM | HL-60 19.5 µM | HOP-62 30.3 µM | K562 25.8 µM | MCF7 29.5 µM | MDA-MB-435 25.8 µM | Malme-3M 22.6 µM | NCI-H460 28.1 µM | NCI-H522 21.9 µM | OVCAR-4 21.5 µM | OVCAR-5 43 µM | PC-3 22.5 µM | SF-295 28.1 µM | SK-MEL-5 20.7 µM | SN12C 26.3 µM | SW-620 31.8 µM | T47D 16.5 µM | UO-31 21.5 µM

O=c1[nH]nc(Cc2ccc(Cl)cc2)n1/N=C\c1ccc(/C=N/n2c(Cc3ccc(Cl)cc3)n[nH]c2=O)cc1
inactive: BT-549 > 100 µM | HL-60 > 100 µM | HOP-62 17 µM | K562 > 100 µM | MCF7 > 100 µM | MDA-MB-435 > 100 µM | Malme-3M > 100 µM | NCI-H460 > 100 µM | NCI-H522 > 100 µM | OVCAR-4 76.4 µM | OVCAR-5 > 100 µM | PC-3 > 100 µM | SF-295 > 100 µM | SK-MEL-5 > 100 µM | SN12C 57.3 µM | SW-620 > 100 µM | T47D > 100 µM | UO-31 > 100 µM

CCOC(=O)C1=CC(C)(C(=O)OCC)Nc2c(nc(N)[nH]c2=O)N1 (stereo not drawn)
inactive: BT-549 7.31 µM | HOP-62 > 10 µM | K562 > 10 µM | MCF7 > 10 µM | MDA-MB-435 > 10 µM | Malme-3M > 10 µM | NCI-H460 > 10 µM | NCI-H522 > 10 µM | OVCAR-4 > 10 µM | OVCAR-5 > 10 µM | PC-3 > 10 µM | SF-295 > 10 µM | SK-MEL-5 > 10 µM | SK-OV-3 > 10 µM | SN12C > 10 µM | SNB-75 > 10 µM | SW-620 > 10 µM | T47D > 10 µM | UO-31 > 10 µM
